Results taken from patent publication US9045398B2, “Sulfonium salt and photo-acid generator” (SAN-APRO LTD., priority 2013, dated 2015).

Columns and labels:
[1] = Degree of solubility in propylene glycol monomethyl ether acetate (PGMEA); assay type: physicochemical; details: for Degree of solubility in PGMEA compared with Comparative Examples 1 to 3 (identical anion, different cation): versus Comparative Examples 1 to 3; for Degree of solubility (%): in propylene glycol monomethyl ether acetate (PGMEA)
Description: The degrees of solubility in propylene glycol monomethyl ether acetate (PGMEA) of the photo-acid generators (A-1) to (A-10) of the present invention and the photo-acid generators (H-1) to (H-3) of comparative examples were measured.
The degree of solubility determined by the above-mentioned operations was judged according to the following criteria. The results are shown in Table 2. • S: 30% or more • A: 5% or more but less than 30% • B: 1% or more but less than 5% • C: less than 1%

[2] = Evaluation of light sensitivity: acid generation ratio after ArF excimer lamp exposure (Rhodamine B base colour reagent); assay type: physicochemical; details: 2.5 mM in acetonitrile with 2.5 mM Rhodamine B base; ArF excimer lamp 193 nm, 1.8 mW/cm^2, integrated amount of light 100 mJ/cm^2
Description: The photo-acid generators (A-1) to (A-10) of the present invention and the photo-acid generators (H-1) to (H-3) of comparative examples were each diluted with acetonitrile so that their molar concentrations would be 2.5 mM, and then Rhodamine B base (a color reagent for an acid, produced by Sigma-Aldrich) was added to the respective solutions so that the molar concentration would be 2.5 mM, yielding sample solutions.
A sample solution obtained above was put into a quartz cell having an optical path length of 1 cm and then was exposed to light under prescribed conditions using an ArF excimer lamp (center wavelength=193 nm). The absorbance near 556 nm of the respective sample solutions after exposure to light was measured with a spectrophotometer (UV-vis) because the photo-acid generator in a sample solution is decomposed upon exposure to light to generate an acid, which then reacts with Rhodamine B base and, as a result, the absorbance near 556 nm increases. Based on the absorbance at 556 nm, the molar concentration of the acid in the sample solution after exposure to light was determined using a calibration curve (standard substance: p-toluenesulfonic acid). From the acid concentration determined and the initial concentration of the photo-acid generator, the acid generation ratio was determined by the following calculation.
The acid generation ratio determined by the above-mentioned operations was judged according to the following criteria. The results are shown in Table 2. • A: 55% or more • C: less than 55% • (Light Exposure Conditions) • Photolithography machine: ArF excimer lamp (manufactured by USHIO INC.) • Illuminance (measured with a 193 nm head illuminometer): 1.8 mW/cm^2 • Integrated amount of light (measured with a 193 nm head illuminometer): 100 mJ/cm^2 <Evaluation of Solubility> (Measurement of Degree of Solubility)

| Degree of solubility in PGMEA compared with Comparative Examples 1 to 3 (identical anion, different cation) [1] | Degree of solubility (%) [1] | Acid generation ratio (%) [2] | Compound |
| --- | --- | --- | --- |
|  | C (less than 1%) | A (55% or more) | O=S(=O)([O-])C(F)(F)F.c1ccc([S+](c2ccccc2)c2ccccc2)cc1 [H-1, Triphenylsulfonium trifluoromethanesulfonate, reference compound] |
|  | B (1% or more but less than 5%) | C (less than 55%) | Cc1ccc([S+](c2ccccc2)c2ccccc2)cc1.O=S(=O)([O-])C(F)(F)F [H-2, (4-Methylphenyl)diphenylsulfonium trifluoromethanesulfonate, reference compound] |
|  | B (1% or more but less than 5%) | C (less than 55%) | Fc1ccc([S+](c2ccccc2)c2ccccc2)cc1.O=S(=O)([O-])C(F)(F)F [H-3, (4-Fluorophenyl)diphenylsulfonium trifluoromethanesulfonate, reference compound] |

Further lines, the compound ahead of its results:

| Compound | Degree of solubility in PGMEA compared with Comparative Examples 1 to 3 (identical anion, different cation) [1] | Degree of solubility (%) [1] | Acid generation ratio (%) [2] |
| --- | --- | --- | --- |
| Fc1cccc([S+](c2ccccc2)c2ccccc2)c1 [A-1] | higher | A (5% or more but less than 30%) | A (55% or more) |
| Fc1cccc([S+](c2ccccc2)c2ccccc2)c1 [A-2] |  | S (30% or more) | A (55% or more) |
| Fc1cccc([S+](c2ccccc2)c2ccccc2)c1 [A-3] |  | S (30% or more) | A (55% or more) |
| Fc1cccc([S+](c2ccccc2)c2ccccc2)c1 [A-4] |  | S (30% or more) | A (55% or more) |
| FC(F)(F)c1cccc([S+](c2ccccc2)c2ccccc2)c1 [A-6, diphenyl-3-trifluoromethylphenylsulfonium trifluoromethane sulfonate] | higher | A (5% or more but less than 30%) | A (55% or more) |
| FC(F)(F)c1cccc([S+](c2ccccc2)c2ccccc2)c1 [A-7] |  | S (30% or more) | A (55% or more) |
| FC(F)(F)c1cccc([S+](c2ccccc2)c2ccccc2)c1 [A-8] |  | S (30% or more) | A (55% or more) |
| FC(F)(F)c1cccc([S+](c2ccccc2)c2ccccc2)c1 [A-9] |  | S (30% or more) | A (55% or more) |
